Assays:
Assay in all cases: relative viability (nuclei count vs DMSO), 5 days (fraction); higher = more cells survive
A549 = tested on: A549
In short: (§1)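 Values are medians from duplicate plates. Each reflects relative viability, defined as the nuclei count of treated wells over that of vehicle wells. Lung cancer cell lines in 1536-well plates were pin-tool dosed one day after seeding with one drug alone or with a fixed anchor-drug dose plus five library-drug doses (not always all listed) in √10 steps, then fixed, stained and imaged at 4× after 5 days.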

Calu-6 = tested on: Calu-6
In short: as §1

EBC-1 = tested on: EBC-1
In short: as §1

HCC-15 = tested on: HCC-15
In short: as §1

IA-LM = tested on: IA-LM
In short: as §1

LCLC-103H = tested on: LCLC-103H
In short: as §1

NCI-H1299 = tested on: NCI-H1299
In short: as §1

NCI-H1703 = tested on: NCI-H1703
In short: as §1

UMC-11 = tested on: UMC-11
In short: as §1

For `C=C1C(=O)O[C@@H](CCCCCCCC)[C@@H]1C(=O)O` [C-75] + CS(=O)(=O)N1CCN(Cc2cc3nc(-c4cccc5[nH]ncc45)nc(N4CCOCC4)c3s2)CC1 [Pictilisib] (partner 1 µM), the relative viability (A549; first compound 0.08 µM) was 0.475, the relative viability (A549; first compound 0.253 µM) was 0.571 and the relative viability (A549; first compound 0.8 µM) was 0.514. The relative viability (A549; first compound 2.53 µM) was 0.309, the relative viability (A549; first compound 8 µM) was 0.497 and the relative viability (Calu-6; first compound 0.08 µM) was 0.985. It also gave a relative viability (Calu-6; first compound 0.253 µM) of 1.07, a relative viability (Calu-6; first compound 0.8 µM) of 0.811 and a relative viability (Calu-6; first compound 2.53 µM) of 0.714. For the same compound, the relative viability (Calu-6; first compound 8 µM) was 0.817, the relative viability (EBC-1; first compound 0.08 µM) was 0.43 and the relative viability (EBC-1; first compound 0.253 µM) was 0.355. It also gave a relative viability (EBC-1; first compound 0.8 µM) of 0.315, a relative viability (EBC-1; first compound 2.53 µM) of 0.361 and a relative viability (EBC-1; first compound 8 µM) of 0.179. For the same compound, the relative viability (HCC-15; first compound 0.08 µM) was 0.739, the relative viability (HCC-15; first compound 0.253 µM) was 0.761 and the relative viability (HCC-15; first compound 0.8 µM) was 0.654. It also gave a relative viability (HCC-15; first compound 2.53 µM) of 0.666, a relative viability (HCC-15; first compound 8 µM) of 0.725 and a relative viability (IA-LM; first compound 0.08 µM) of 0.448. It also gave a relative viability (IA-LM; first compound 0.253 µM) of 0.294, a relative viability (IA-LM; first compound 0.8 µM) of 0.266 and a relative viability (IA-LM; first compound 2.53 µM) of 0.358. The relative viability (IA-LM; first compound 8 µM) was 0.375, the relative viability (LCLC-103H; first compound 0.08 µM) was 0.573 and the relative viability (LCLC-103H; first compound 0.253 µM) was 0.641. The relative viability (LCLC-103H; first compound 0.8 µM) was 0.517, the relative viability (LCLC-103H; first compound 2.53 µM) was 0.568 and the relative viability (LCLC-103H; first compound 8 µM) was 0.488. The relative viability (NCI-H1299; first compound 0.08 µM) was 0.785, the relative viability (NCI-H1299; first compound 0.253 µM) was 0.825 and the relative viability (NCI-H1299; first compound 0.8 µM) was 0.737. For the same compound, the relative viability (NCI-H1299; first compound 2.53 µM) was 0.826, the relative viability (NCI-H1299; first compound 8 µM) was 0.634 and the relative viability (NCI-H1703; first compound 0.08 µM) was 0.247. The relative viability (NCI-H1703; first compound 0.253 µM) was 0.266, the relative viability (NCI-H1703; first compound 0.8 µM) was 0.235 and the relative viability (NCI-H1703; first compound 2.53 µM) was 0.214. The relative viability (NCI-H1703; first compound 8 µM) was 0.249, the relative viability (UMC-11; first compound 0.08 µM) was 0.74 and the relative viability (UMC-11; first compound 0.253 µM) was 0.899. The relative viability (UMC-11; first compound 0.8 µM) was 0.704, the relative viability (UMC-11; first compound 2.53 µM) was 0.702 and the relative viability (UMC-11; first compound 8 µM) was 0.75.

Work on `C=C1C(=O)O[C@@H](CCCCCCCC)[C@@H]1C(=O)O` [C-75] + C[C@@H](Oc1cc(-c2cnn(C3CCNCC3)c2)cnc1N)c1c(Cl)ccc(F)c1Cl [Crizotinib] (partner 1 µM) yielded a relative viability (A549; first compound 0.08 µM) of 0.763, a relative viability (A549; first compound 0.253 µM) of 0.715 and a relative viability (A549; first compound 0.8 µM) of 0.651. The relative viability (A549; first compound 2.53 µM) was 0.81, the relative viability (A549; first compound 8 µM) was 0.593 and the relative viability (Calu-6; first compound 0.08 µM) was 0.816. The relative viability (Calu-6; first compound 0.253 µM) was 0.824, the relative viability (Calu-6; first compound 0.8 µM) was 0.711 and the relative viability (Calu-6; first compound 2.53 µM) was 0.623. For the same compound, the relative viability (Calu-6; first compound 8 µM) was 0.761, the relative viability (EBC-1; first compound 0.08 µM) was 0.179 and the relative viability (EBC-1; first compound 0.253 µM) was 0.184. For the same compound, the relative viability (EBC-1; first compound 0.8 µM) was 0.225, the relative viability (EBC-1; first compound 2.53 µM) was 0.179 and the relative viability (EBC-1; first compound 8 µM) was 0.211. The relative viability (HCC-15; first compound 0.08 µM) was 0.82, the relative viability (HCC-15; first compound 0.253 µM) was 0.885 and the relative viability (HCC-15; first compound 0.8 µM) was 0.764. The relative viability (HCC-15; first compound 2.53 µM) was 0.699, the relative viability (HCC-15; first compound 8 µM) was 0.835 and the relative viability (IA-LM; first compound 0.08 µM) was 0.956. For the same compound, the relative viability (IA-LM; first compound 0.253 µM) was 1.09, the relative viability (IA-LM; first compound 8 µM) was 0.504 and the relative viability (LCLC-103H; first compound 0.08 µM) was 1.08. It also gave a relative viability (LCLC-103H; first compound 0.253 µM) of 1.03, a relative viability (LCLC-103H; first compound 0.8 µM) of 1.05 and a relative viability (LCLC-103H; first compound 2.53 µM) of 0.899. The relative viability (LCLC-103H; first compound 8 µM) was 0.978, the relative viability (NCI-H1299; first compound 0.08 µM) was 0.939 and the relative viability (NCI-H1299; first compound 0.253 µM) was 0.932. It also gave a relative viability (NCI-H1299; first compound 0.8 µM) of 0.967, a relative viability (NCI-H1299; first compound 2.53 µM) of 0.853 and a relative viability (NCI-H1299; first compound 8 µM) of 0.927. The relative viability (NCI-H1703; first compound 0.08 µM) was 0.688, the relative viability (NCI-H1703; first compound 0.8 µM) was 0.495 and the relative viability (NCI-H1703; first compound 2.53 µM) was 0.683. The relative viability (NCI-H1703; first compound 8 µM) was 0.587, the relative viability (UMC-11; first compound 0.08 µM) was 0.688 and the relative viability (UMC-11; first compound 0.253 µM) was 0.625. For the same compound, the relative viability (UMC-11; first compound 0.8 µM) was 0.651, the relative viability (UMC-11; first compound 2.53 µM) was 0.497 and the relative viability (UMC-11; first compound 8 µM) was 0.461.

`C=C1C(=O)O[C@@H](CCCCCCCC)[C@@H]1C(=O)O` [C-75] + C[C@]1(O)C[C@@H](c2nc(-c3ccc4ccc(-c5ccccc5)nc4c3)c3c(N)nccn32)C1 [Linsitinib] (partner 1 µM) showed a relative viability (A549; first compound 0.08 µM) of 0.526, a relative viability (A549; first compound 0.253 µM) of 0.753 and a relative viability (A549; first compound 0.8 µM) of 0.549. It also gave a relative viability (A549; first compound 2.53 µM) of 0.37, a relative viability (A549; first compound 8 µM) of 0.628 and a relative viability (Calu-6; first compound 0.08 µM) of 0.902. It also gave a relative viability (Calu-6; first compound 0.253 µM) of 0.941, a relative viability (Calu-6; first compound 0.8 µM) of 0.905 and a relative viability (Calu-6; first compound 2.53 µM) of 0.916. It also gave a relative viability (Calu-6; first compound 8 µM) of 0.724, a relative viability (EBC-1; first compound 0.08 µM) of 0.878 and a relative viability (EBC-1; first compound 0.253 µM) of 1.05. For the same compound, the relative viability (EBC-1; first compound 0.8 µM) was 0.82, the relative viability (EBC-1; first compound 2.53 µM) was 0.821 and the relative viability (EBC-1; first compound 8 µM) was 0.734. It also gave a relative viability (HCC-15; first compound 0.08 µM) of 0.926, a relative viability (HCC-15; first compound 0.253 µM) of 0.978 and a relative viability (HCC-15; first compound 0.8 µM) of 0.924. For the same compound, the relative viability (HCC-15; first compound 2.53 µM) was 0.847, the relative viability (HCC-15; first compound 8 µM) was 0.902 and the relative viability (IA-LM; first compound 0.08 µM) was 0.682. It also gave a relative viability (IA-LM; first compound 0.253 µM) of 0.644, a relative viability (IA-LM; first compound 0.8 µM) of 0.53 and a relative viability (IA-LM; first compound 2.53 µM) of 0.556. The relative viability (IA-LM; first compound 8 µM) was 0.53, the relative viability (LCLC-103H; first compound 0.08 µM) was 0.999 and the relative viability (LCLC-103H; first compound 0.253 µM) was 1.29. The relative viability (LCLC-103H; first compound 0.8 µM) was 1.08, the relative viability (LCLC-103H; first compound 2.53 µM) was 0.862 and the relative viability (LCLC-103H; first compound 8 µM) was 1.09. The relative viability (NCI-H1299; first compound 0.08 µM) was 1.01, the relative viability (NCI-H1299; first compound 0.253 µM) was 0.908 and the relative viability (NCI-H1299; first compound 0.8 µM) was 1.05. For the same compound, the relative viability (NCI-H1299; first compound 2.53 µM) was 0.814, the relative viability (NCI-H1299; first compound 8 µM) was 1.06 and the relative viability (NCI-H1703; first compound 0.08 µM) was 0.752. It also gave a relative viability (NCI-H1703; first compound 0.253 µM) of 0.591, a relative viability (NCI-H1703; first compound 0.8 µM) of 0.672 and a relative viability (NCI-H1703; first compound 2.53 µM) of 0.457. It also gave a relative viability (NCI-H1703; first compound 8 µM) of 0.632, a relative viability (UMC-11; first compound 0.08 µM) of 0.91 and a relative viability (UMC-11; first compound 0.253 µM) of 1.09. It also gave a relative viability (UMC-11; first compound 0.8 µM) of 1.01, a relative viability (UMC-11; first compound 2.53 µM) of 0.821 and a relative viability (UMC-11; first compound 8 µM) of 0.891.

Reference: the supplement of paper PMC10307832
